Laboratory results published in patent US12685744B2, “Anti-fungal compositions and methods for using same” (The Research Foundation for The State University of New York, priority 2019, dated 2026).

Experiments:
[1] = test system: C. albicans wild type strain (SC5314); assay: Checkerboard synergy assay / MIC analysis, OD600; assay type: cell-based, Candida albicans
Method: (§1) The C. albicans wild type strain (SC5314) was cultured from frozen stock in Yeast Peptone Dextrose (YPD) and grown overnight at 30° C. with shaking at 225 rpm. Cell concentration was determined by hemocytometer and used to adjust the inoculum to 2×10^3 cells/ml in fresh YPD, which is 2× the desired final concentration. 50 ul of the inoculum was added to each well for a final culture volume of 100 ul. The final cell concentration was 1×10^3 cells/ml. The plate was sealed with plastic film and placed in a BioTek Synergy HT plate reader for 24 hours at 37° C. At each time point, the plate was shaken for 10 seconds prior to each OD600 reading.

[2] = test system: C. albicans strain SC5314 (Wild Type); assay: Growth of C. albicans with ManSIFG and 0.2M CaCl2, cell count by hemocytometer; assay type: cell-based, Candida albicans; conditions: 0.2M CaCl2 alone
Method: This signaling pathway is considered to regulate synthesis of chitin, an important carbohydrate which is part of the cell wall and septum, which is formed during cell division. C. albicans strain SC5314 (wild type) was cultured from frozen stock in Yeast Nitrogen Base media (YNB) with 2% glucose and grown overnight at 30° C. with shaking at 225 rpm. Cell concentration was determined by hemocytometer. […] […] (62.5 μg/ml) was added to test cultures but not to control cultures. The experiment was done in triplicates. The culture tubes were placed on a nutator inside a 30° C. incubator and grown for 24 hours. Time points were taken at 6, 12, and 24 hours. Cell concentration was monitored by hemocytometer at 6, 12, and 24-hour time points. Statistical analysis was done using two-tailed Student's t-Test.

[3] = test system: wildtype C. albicans strain SC5314; assay: Growth of C. albicans in YNB, cell count by hemocytometer; assay type: cell-based, Candida albicans
Method: (§2) The wildtype C. albicans strain SC5314 was cultured from frozen stock in Yeast Nitrogen Base (YNB) media with 2% glucose and grown overnight at 30° C. with shaking at 225 rpm as described previously (Chinnici et al., 2019). Cell concentration of the overnight culture was determined by hemocytometer. This was used to inoculate fresh cultures with a final starting concentration of 5×10^5 cells/ml in fresh YNB contain either no treatment (control) or various concentrations (31.25, 62.5, or 125 μg/ml) of the mannose disaccharide inhibitor. The cultures were run in duplicates and incubated at 30° C. on a nutator. Cell concentration was analyzed by counting on hemocytometer at 10, 14, 18, and 24-hour time points. Statistical analysis was done using two-tailed Student's t-Test.
as §2, with “previously.” for “previously (Chinnici et al., 2019).”, “62.5 μg/ml” for “various concentrations (31.25, 62.5, or 125 μg/ml)”, “D-Mannose.” for “the mannose disaccharide inhibitor.”

[4] = test system: Candida parapsilosis (ATCC-22019) wild type strain; assay: Antifungal activity against C. parapsilosis; assay type: cell-based; conditions: at very low concentrations (FIG. 12)
Method: as §1, with “ManSIFG MIC analysis for Candida albicans and effects of CaCl2. A checkerboard synergy assay was used to test ManSIFG and CaCl2) each by themselves and in various combinations of each other. Drug concentrations to be tested were prepared 4× concentrated and dispensed into a sterile 96-well culture plate. 25 ul of each ManSIFG dilution was dispensed in each column, such that concentrations increased along the x-axis of the plate. 25 ul of each CaCl2 dilution was dispensed in each row, such that concentrations increased along the y-axis of the plate. The C.” for “The C.”
Effect of ManSIFG on additional Candida species. Other Candida species were tested. Candida parapsilosis (ATCC-22019) wild type strain was used. Methods are same as described above. […]

[5] = test system: Candida glabrata (ATCC-2001) wild type strain; assay: Antifungal activity against C. glabrata; assay type: cell-based; conditions: FIG. 14
[6] = test system: Trychophyton rubrum (ATCC-MYA-4607); assay: MIC testing against toe nail fungus; assay type: cell-based, Trichophyton rubrum; conditions: various concentrations, SDB, 25° C., 6 days (FIG. 10)
Method: Effect […] on other fungal cells. Trichophyton rubrum is the fungal pathogen that causes onychomycosis or toe nail fungus. […] The experiment was performed in triplicates. […] A 50 ul inoculum was added to each well for a final culture volume of 100 ul. […] The plate was cultured for 6 days at 25° C. and then imaged using an iPhone camera.

[7] = test system: Candida tropicalis (ATCC-750) wild type strain; assay: Antifungal activity against C. tropicalis; assay type: cell-based; conditions: FIG. 15
[8] = test system: Candida krusei, (ATCC-6258) wild type strain; assay: Antifungal activity against C. krusei; assay type: cell-based; conditions: even at very low concentrations (FIG. 13)
[9] = test system: C. albicans strain SC5314 (Wild Type); assay: Germ tube / hypha formation of C. albicans induced by 20% FBS, count by hemocytometer; assay type: cell-based, Candida albicans; conditions: 62.5 μg/ml, 37° C., significantly (FIG. 3)

[Ca+2].[Cl-].[Cl-] [CaCl2, Calcium chloride] was tested, and the “antifungal effect of CaCl2 by itself” value ([1]; very high concentrations (FIG. 9)) was “has an antifungal effect”, the “growth of C. albicans as compared to control cultures” value ([2]; 12 hours (FIG. 4A)) was “significantly inhibit” and the “growth of C. albicans as compared to control cultures” value ([2]; 24 hours (FIG. 4B)) was “significantly inhibit”.
With O=C[C@@H](O)[C@@H](O)[C@H](O)[C@H](O)CO [D-Mannose, reference compound] the “growth of C. albicans wild type as compared to control cultures” value ([3]; D-Mannose 62.5 μg/ml, 10, 14, 18 and 24-hour time points) was “not inhibited”.
With OC[C@H]1O[C@H](SC[C@H]2CNC[C@@H](O)[C@@H]2O)[C@@H](O)[C@@H](O)[C@@H]1O [ManSIFG, (2R,3S,4S,5S,6R)-2-((((3S,4R,5R)-4,5-dihydroxypiperidin-3-yl)methyl)thio)-6-(hydroxymethyl)tetrahydro-2H-pyran-3,4,5-triol] the “antifungal activity against Candida parapsilosis” value [4] was “has antifungal activity”, the “antifungal activity against Candida glabrata” value [5] was “has antifungal activity” and the “inhibitory effect against Trychophoton rubrum” value [6] was “no inhibitory effect”. For the same compound, the MIC ([1]; Candida albicans, SC5314, YPD, 37° C., 24 hours, OD600 (FIG. 7)) was 31.2 to 62.5 µg/mL, the “effect of addition of CaCl2 on antifungal activity of ManSIFG” value ([1]; ManSIFG 7.81 μg/ml plus 100 mg/ml CaCl2 vs CaCl2 alone (FIG. 8)) was “improves the antifungal activity” and the “antifungal activity against Candida tropicalis” value [7] was “has antifungal activity”. The “antifungal activity against Candida krucei” value [8] was “has antifungal activity”, the “formation of germ tubes as compared to control cultures” value ([9]; 12 hours) was “inhibited” and the “formation of germ tubes as compared to control cultures” value ([9]; 24 hours) was “inhibited”. For the same compound, the “growth of C. albicans wild type as compared to control cultures” value ([3]; 62.5 μg/ml, 10 hours, significantly (FIG. 2)) was “inhibited” and the “growth of C. albicans, difference between control and inhibitor cultures” value ([3]; 62.5 μg/ml, later time points (14, 18, 24 hours)) was “no significant difference”.
